Experimental data published in patent US6524789B1, “Human neuronal nicotinic acetylcholine receptor compositions and methods employing same” (Merck & Co., Inc., priority 1995, dated 2003).

Tests used:
PC12 = assay: 86Rb ion-flux assay, positive control cells PC12; format: cell-based; conditions: Rattus norvegicus, PC-12, antagonist, 86Rb influx
Protocol: The ^86Rb ion-flux assay is conducted as follows:
1. The night before the experiment, cells are plated at 2×10^6 per well (i.e., 2 ml per well) in a 6-well polylysine-coated plate.
2. The culture medium is decanted and the plate washed with 2 ml of assay buffer (50 mM HEPES, 260 mM sucrose, 5.4 mM KCl, 1.8 mM CaCl2, 0.8 mM MgSO4, 5.5 mM glucose) at room temperature.
3. The assay buffer is decanted and 1 ml of assay buffer, containing 3 μCi/ml ^86Rb, with 5 mM ouabain and agoinist or antagonist in a concentration to effect a maximum response, is added.
4. The plate is incubated on ice at 1° C. for 4 min.
5. The buffer is decanted into a waste container and each well was washed with 3 ml of assay buffer, followed by two washes of 2 ml each.
6. The cells are lysed with 2×0.5 ml of 0.2% SDS per well and transferred to a scintillation vial containing 5 ml of scintillation fluid.
7. The radioactivity contained in each vial 5 is measured and the data calculated.

[1] = molecular target: T1, functional recombinant nAChR (Homo sapiens, UniProt Q15825); format: cell-based
T1 construct: A 1,743 bp EcoRI fragment, encoding a full-length nAChR α6 subunit, was isolated from KEα6.3; expressed in transfected cells; host or cells: HEK 293 cells, transiently or stably co-transfected
T1 sequence (Q15825 31-494): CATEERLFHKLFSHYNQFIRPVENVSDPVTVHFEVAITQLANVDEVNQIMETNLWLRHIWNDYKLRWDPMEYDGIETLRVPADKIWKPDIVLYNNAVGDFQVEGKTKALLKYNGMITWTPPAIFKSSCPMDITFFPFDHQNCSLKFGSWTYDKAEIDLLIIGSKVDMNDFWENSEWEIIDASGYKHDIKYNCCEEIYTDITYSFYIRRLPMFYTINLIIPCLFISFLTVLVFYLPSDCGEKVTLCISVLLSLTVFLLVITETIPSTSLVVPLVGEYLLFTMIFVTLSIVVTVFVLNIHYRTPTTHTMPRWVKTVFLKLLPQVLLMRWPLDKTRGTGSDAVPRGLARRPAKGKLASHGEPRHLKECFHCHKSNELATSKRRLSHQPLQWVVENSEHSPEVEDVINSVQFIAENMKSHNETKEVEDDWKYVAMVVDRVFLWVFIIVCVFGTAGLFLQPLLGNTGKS
T1 sequence (Q05901 25-458 partner limits assumed): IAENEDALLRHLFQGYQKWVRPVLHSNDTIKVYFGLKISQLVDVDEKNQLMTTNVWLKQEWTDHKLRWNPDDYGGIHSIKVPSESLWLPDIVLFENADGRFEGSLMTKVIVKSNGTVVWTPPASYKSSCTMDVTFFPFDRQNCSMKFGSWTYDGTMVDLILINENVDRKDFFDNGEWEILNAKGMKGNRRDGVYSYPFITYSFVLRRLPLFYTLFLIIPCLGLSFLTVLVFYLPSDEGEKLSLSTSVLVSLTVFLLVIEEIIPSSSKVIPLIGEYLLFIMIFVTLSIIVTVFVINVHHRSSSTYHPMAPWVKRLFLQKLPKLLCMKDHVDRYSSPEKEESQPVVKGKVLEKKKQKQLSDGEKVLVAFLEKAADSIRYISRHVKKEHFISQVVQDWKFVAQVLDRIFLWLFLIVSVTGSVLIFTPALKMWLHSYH
Description: Activation of the ligand-gated nAChR by agonists leads to an influx of cations, including Ca^++, through the receptor channel. Ca^++ entry into the cell through the channel can induce release of calcium contained in intracellular stores. Monovalent cation entry into the cell through the channel can also result in an increase in cytoplasmic Ca^++ levels through depolarization of the membrane and subsequent activation of voltage-dependent calcium channels. Therefore, methods of detecting transient increases in intracellular calcium concentration can be applied to the analysis of functional nicotinic nAChR expression. One method for measuring intracellular calcium levels relies on calcium-sensitive fluorescent indicators.
Calcium-sensitive indicators, such as fluo-3 (Catalog No. F01241, Molecular Probes, Inc., Eugene, Oreg.), are available as acetoxymethyl esters which are membrane permeable. […] Interaction of the free indicator with calcium results in increased fluorescence of the indicator; therefore, an increase in the intracellular Ca^2+ concentration of cells containing the indicator can be expressed directly as an increase in fluorescence.
HEK cells that are transiently or stably co-transfected with DNA encoding appropriate α and/or β subunits and α6 and β3 subunits are analyzed for expression of functional recombinant nAChR using the automated fluorescent indicator-based assay. […]

untransfected HEK cells = conditions: fluo-3, 200 μM nicotine
Protocol: HEK cells that are transiently or stably co-transfected with DNA encoding appropriate α and/or β subunits and α6 and β3 subunits are analyzed for expression of functional recombinant nAChR using the automated fluorescent indicator-based assay. The assay procedure is as follows. Untransfected HEK cells and HEK cells co-transfected with DNA encoding the appropriate α and β subunits are plated in the wells of a 96-well microtiter dish and loaded with fluo-3 by incubation for 2 hours at 20° C. in a medium containing 20 μM fluo-3, 0.2% Pluronic F-127 in HBS (125 mM NaCl, 5 mM KCl, 1.8 mM CaCl2, 0.62 mM MgSO4, 6 mM glucose, 20 mM HEPES, pH 7.4). The cells are then washed with assay buffer (i.e., HBS). The antagonist d-tubocurarine is added to some of the wells at a final concentration of 10 μM.

Structure (SMILES): CN1[C@@H]2CC[C@H]1C[C@@H](OC(=O)C(CO)c1ccccc1)C2 (stereo partly shown) [atropine]
- EC50 (PC12): 12.5 µM

Structure (SMILES): COc1cc2c3cc1Oc1cc(ccc1O)C[C@@H]1c4c(cc(OC)c(O)c4Oc4ccc(cc4)C[C@@H]3N(C)CC2)CC[N+]1(C)C [d-tubocurarine]
- nicotine-stimulated increase in fluorescence in cells exposed to antagonist ([1]; co-transfected HEK cells, 10 μM d-tubocurarine, 200 μM nicotine): not observed

Structure (SMILES): CN1CCCC1c1cccnc1 (stereo not shown) [nicotine]
- fluorescence after addition of nicotine (untransfected HEK cells): does not change
- fluorescence after addition of nicotine [1]: increases dramatically
